According to patent US20040142379A1, “Affinity fishing for ligands and proteins receptors” (Carlsberg Research Laboratory, priority 2003, published 2004):
“Also recorded” adds a separate entry of the source.

Legend:
[1] = test system: isoleucine tRNA synthetase; conditions: approved antibiotic; Merck Manual; cited from earlier work
Myocytes = assay: Myocyte culture with phenylephrine (in vitro model of hypertrophy); format: cell-based, neonatal Wistar rats; conditions: 10 μM phenylephrine, grown two more days, serum free MEM
Protocol: (§1) Myocytes were prepared from 1 to 5 day old neonatal Wistar rats (University of Copenhagen) according to literature procedure described in Busk et al., 2002, Cardiovasc. Res., 56: 64-75 and plated into eight P10 culture plates at 6 million cells/plate. Cells were grown at 37° C. and 5% CO2 humidity in serum free Modified Eagle Media (MEM). After 2 days, the adherent cells were washed at room temperature with serum free MEM (2×) and fresh MEM was added. To four of the plates, 10 μM phenylephrine (PE) was also added. Cells were grown for two more days and then harvested as described below.
Using the procedures described above for Examples 1-5, the ligand Library 1 (containing unnatural amino acids) as described for Example 5, myocyte proteins prepared and labeled as described for Examples 9 and 11, screening as described for Example 15, sorting and identifying as described for Examples 18 to 21, digestion and protein identification as described for Examples 25-31, previously unknown, specific, differential ligand-protein binding pairs were identified for the normal (basal) myocyte protein mixtures and the phenylephrine (PE)-treated myocyte proteins screened against the ligands of Library 1. Phenylephrine was used to provide an in vitro model of hypertrophy, for example, cardiac hypertrophy (Arnott et al., 1998, Anal. Biochem., 1:1-18).

Phosphomannose isomerase = molecular target: T1, Phosphomannose isomerase (Candida albicans, UniProt P34948); conditions: in Candida; Wells et al, 1996; cited from earlier work
T1 sequence (P34948 1-441): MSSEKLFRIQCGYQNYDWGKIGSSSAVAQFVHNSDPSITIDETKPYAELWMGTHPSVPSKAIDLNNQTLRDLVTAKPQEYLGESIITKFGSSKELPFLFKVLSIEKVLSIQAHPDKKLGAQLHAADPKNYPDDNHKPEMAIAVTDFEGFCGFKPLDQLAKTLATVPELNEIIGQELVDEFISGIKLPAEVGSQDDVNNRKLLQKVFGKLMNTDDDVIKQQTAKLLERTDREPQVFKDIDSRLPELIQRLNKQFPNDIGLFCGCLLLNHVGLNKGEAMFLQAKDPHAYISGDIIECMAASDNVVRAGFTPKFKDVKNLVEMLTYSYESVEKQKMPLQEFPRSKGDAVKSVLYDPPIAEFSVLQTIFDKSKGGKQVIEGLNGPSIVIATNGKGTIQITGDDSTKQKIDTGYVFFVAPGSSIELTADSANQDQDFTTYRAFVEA

[2] = test system: Phenylephrine Treated (Hyperthrophic) Myocytes protein mixture; assay: Solid phase screening of Library 1 with labeled myocyte proteins; on-bead affinity isolation and peptide mass fingerprinting of bound protein (PE-induced); format: binding, neonatal Wistar rats; conditions: proteins bound to resin-bound Library 1 ligand, primarily present in PE-treated hypertrophied cells; LA low abundance, M transmembrane or partially embedded, MA membrane associated
Protocol: as §1
(§2) Protein was extracted from myocytes prepared as described above for Example 9, using a new procedure modified from existing protocols, primarily: Arnott, et al., 1998, Anal. Biochem. 258: 1-18. The media was removed from plates and adhered cells were treated for 10 minutes with ice cold phosphate buffer (0.25 mL, 10 mM, pH 7.5, augmented with 0.15 M NaCl 60 mM Benzamidine HCl, 5 mM EDTA, 10 μg/mL E-64, 10 μg/mL Leupeptin, 10 μg/mL Pepstatin A, and 1 mM PMSF). The cells were scraped off the plates and then lysed (on ice) in a sonicator (2×) using 10 seconds off/10 seconds on cycles.
(§3) The resulting suspension was augmented with CHAPS, DTT, and urea to a final concentration of CHAPS (1% w/v), DTT (5 mM), and urea (8 M). After 10-15 minutes on ice, the solution was centrifuged for 10 minutes at 15,000 rpm at 4° C. The supernatant was removed and protein content quantified using the NanoOrange Protein test (Molecular Probes, Eugene, Oreg.): Total protein recovered: 70.5 μg for PE-treated cells and 60 μg for basal cells.
(§4) Fluorescent dye Oregon Green 514 (OR) (Molecular Probes) was used to label the healthy/basal cells while Rhodamine Red (RR) (Molecular Probes) was used to label the PE-treated cells. The labeling procedures were carried out according to the manufacturer's protocol. The protein solutions (0.25 mL, 50.4 μg for PE cells and 0.25 mL, 42.8 μg for basal cells) were dialyzed against a solution of 10 mM phosphate buffer, 0.15 M NaCl, pH 7.5 and then 1 M NaHCO3 (0.025 mL) added to a final pH of 8.5. 10 μL of dye in dry DMF (10 mg/mL) was added and the sample stirred at room temperature for 2 hours. The protein solution was dialyzed extensively against 10 mM phosphate buffer, 0.15 M NaCl, pH 7.5, to remove excess dye.
(§5) Ligand library 1 (200 mg), prepared as described for Example 5, was transferred to a syringe fitted with a stop-valve and the ligand-beads were washed for 10 minutes (3×) with 10 mM phosphate buffer, pH 6.8, supplemented with 0.15 M NaCl, 1 mM Ca^2+, 1 mM Zn^2+, 1 mM Mn^2+, 1 mM Cu^2+, and 1 mM Mg^2+ (3 mL). The ligand-beads were treated with a 1% BSA solution for 30 minutes, then washed with buffer (1×). A mixture of labeled myocyte proteins, including both PE-induced protein (138 μL, 40 μg) and basal protein (167 μL, 40 μg) obtained as described above for Example 11, was prepared in 1.2 mL buffer, and added to the ligand library in the syringe. The proteins and ligand library were incubated at room temperature for 16 hours. The library was then washed with buffer for 5 minutes then with water for 3×5 minutes. The library was examined under a fluorescence microscope and brightly fluorescent red, green, and yellow beads (yellow indicative of both dyes red and green binding; the majority of the beads) were present, as well as unlabelled beads. The fluorescent beads were parted and retained for analysis.
(§6) The fluorescent ligand library beads containing bound myocyte protein obtained as described in Example 15, were sorted using a COPAS (250) NF Bead Sorter (Union Biometrica, Somerville, Mass.). Beads emitting fluorescence of only one color contain proteins from one physical state, proteins expressed only in the PE-induced hypertrophic state (red) or proteins expressed only in the basal state (green).

[3] = test system: Normal Myocytes (basal) protein mixture; assay: Solid phase screening of Library 1 with labeled myocyte proteins; on-bead affinity isolation and peptide mass fingerprinting of bound protein (basal); format: binding, neonatal Wistar rats; conditions: proteins bound to resin-bound Library 1 ligand, primarily present in basal cells; LA low abundance, M transmembrane or partially embedded, MA membrane associated; parentheses = possible complexes
Protocol: as §1, §2, §3, §4, §5, §6

Compound | Identified Protein(s) [2] | Identified Protein(s) [3] | further results
C/C(=C\C(=O)OCCCCCCCCC(=O)O)C[C@@H]1OC[C@H](C[C@@H]2O[C@H]2[C@@H](C)[C@H](C)O)[C@@H](O)[C@H]1O [Mupirocin] |  |  | enzyme inhibition [1]: inhibits
CNC[C@H](O)c1cccc(O)c1 [PE, phenylephrine] |  |  | cell size at time of harvest (Myocytes): significantly enlarged
Nc1ccc(S(=O)(=O)Nc2ncccn2)cc1 [sulfadiazene] |  |  | enzyme inhibition (Phosphomannose isomerase): inhibited
Abi-Phe-Abi-Phe-Che-Tyr | Cathepsin E; Ribosomal proteins, Actin binding protein, Amino acid; also recorded: transferase |  | 
Abi-Thr-Hyp-Hyp-His-?- | Phosphofructokinase; Selenium binding protein; (Serine arginine rich; also recorded: protein kinase (LA); Guanylate kinase (LA), Protein tyrosine kinase; also recorded: (LA)); Alkaline phosphatase; Symporter (M); SPTR (M); WAP-protein;; also recorded: GTP Hydrolase, Actin filament |  | 
Pal-Abi-Gly-Gly-Abi-His | Ribosomal protein (60s + 40s); Low density lipoprotein receptor |  | 
Phe-Abi-Pal-Hyp-Thr-Hyp | Zinc finger associated protein; Ribosomal proteins; Protein phosphatase and (LA) |  | 
Phe-Gua-Pal-Tyr-Gua-Tyr | Glucose-6-Phosphatase; Succinate dehydrogenase; ARL-interacting; also recorded: protein (M); SPTR (M), Nucleic acid binding protein |  | 
Phe-Thr-Pya-Pip-Asp-His |  | (Sodium channel (M); Chloride channel (M)) Troponin; Ribosomal; also recorded: proteins L26; Serine hydroxy methyl transferase; Zn Finger protein (MA);; also recorded: Adherin aminotransferase (M); (Gluthathione transferase; Gluthathione; also recorded: peroxidase;) | 
Pip-Pal-Pal-Phe-Pya-Pip |  | Myosin light chain kinase (LA, MA); (Tyrosine phosphatase (LA, M);; also recorded: ATP Synthase component (M)) Gluthathione S-transferase; Cytochrome; also recorded: P450 (M); Ribosomal proteins (60s); SPTR (M)) | 
Pya-Gua-Abi-Asp-Abi-Tyr | SPTR (M); Ribosomal proteins (60s); (Calcium channel (M); Slo channel; also recorded: protein isoform (M); Potassium conductance calcium activated channel; also recorded: (M); Symporter (M;) NADH dehydrogenase; Malate dehydrogenase; N-; also recorded: Acetyl transferase; Mitochondrial associated protein; G-protein receptor; also recorded: used for signaling (LA, M) |  | 
Pya-Gua-Pip-Acc-Phe-Pip |  | NADH dehydrogenase; ATP binding component (M); Myosin; Histone; also recorded: associated proteins (M) | 
Pya-Hyp-Hyp-Phe-Acm-Tyr |  | Troponin T; Growth hormone receptor (M); Protein kinase (LA) | 
